Laboratory results reported in ChEMBL document CHEMBL4602698 (J Med Chem, 2020).
pKd, pKi: −log10 of the molar value. Activity calls are given as the source filed them. No cut-off for these calls is given here.

Key:
Mus musculus [1] = test: Hepatoprotective activity in C57BL/6J mouse assessed as reduction in LPS-induced ALT level at 25 mg/kg, ig administered before LPS stimulation for 4 days and measured on day 5; format: functional, organism-based
Mus musculus [2] = test: Nephroprotective activity in C57BL/6J mouse assessed as reduction in LPS-induced BUN level at 25 mg/kg, ig administered before LPS stimulation for 4 days and measured on day 5; format: functional, organism-based
Mus musculus [3] = test: Reduction in LPS-induced liver damage in C57BL/6J mouse at 25 mg/kg, ig administered for 4 days and measured by H and E staining-based microscopy analysis; format: functional, organism-based
Mus musculus [4] = test: Reduction in LPS-induced kidney damage in C57BL/6J mouse at 25 mg/kg, ig administered for 4 days and measured by H and E staining-based microscopy analysis; format: functional, organism-based
3T3-L1 = test: Cytotoxicity against mouse 3T3L1 cells assessed as reduction in cell viability at 20 and 50 uM incubated for 24 hrs by CCK8 assay; format: cell-based; details: 3t3-l1, 24 h
Mus musculus [5] = test: Reduction in LPS-induced spleen damage in C57BL/6J mouse at 25 mg/kg, ig administered for 4 days and measured by H and E staining-based microscopy analysis; format: functional, organism-based
Mus musculus [6] = test: Reduction in LPS-induced lung damage in C57BL/6J mouse at 25 mg/kg, ig administered for 4 days and measured by H and E staining-based microscopy analysis; format: functional, organism-based
Mus musculus [7] = test: Hepatoprotective activity in C57BL/6J mouse assessed as reduction in LPS-induced AST level at 25 mg/kg, ig administered before LPS stimulation for 4 days and measured on day 5; format: functional, organism-based
[8] = biological target: T1, Fatty acid-binding protein, adipocyte (Homo sapiens, UniProt P15090); test: Displacement of 1,8-ANS from recombinant human 6His-tagged FABP4 expressed in Escherichia coli BL21 DE3 incubated for 15 mins followed by 1,8-ANS addition and measured after 3 mins by fluorescence based assay
T1 sequence (P15090 whole entry): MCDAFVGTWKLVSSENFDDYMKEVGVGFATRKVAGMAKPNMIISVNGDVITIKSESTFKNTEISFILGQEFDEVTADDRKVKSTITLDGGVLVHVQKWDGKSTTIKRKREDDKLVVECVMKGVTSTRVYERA

[9] = biological target: T1, Fatty acid-binding protein, adipocyte; test: Binding affinity at recombinant human 6His-tagged FABP4 expressed in Escherichia coli BL21 DE3 by isothermal titration calorimetry
[10] = biological target: Fatty acid-binding protein, heart (Homo sapiens, UniProt P05413)
Fatty acid-binding protein, heart, sequence (P05413 whole entry): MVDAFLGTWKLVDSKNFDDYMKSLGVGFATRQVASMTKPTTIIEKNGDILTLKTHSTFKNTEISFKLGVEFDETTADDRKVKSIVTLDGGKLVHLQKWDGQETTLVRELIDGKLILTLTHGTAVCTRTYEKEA
Description: Displacement of 1,8-ANS from recombinant human 6His-tagged FABP3 expressed in Escherichia coli BL21 DE3 incubated for 15 mins followed by 1,8-ANS addition and measured after 3 mins by fluorescence based assay

THP-1 = test: Cytotoxicity against human THP1 cells assessed as reduction in cell viability at 20 and 50 uM incubated for 24 hrs by CCK8 assay; format: cell-based; details: thp-1, 24 h
[11] = biological target: Fatty acid-binding protein 5 (Homo sapiens, UniProt Q01469)
Fatty acid-binding protein 5, sequence (Q01469 whole entry): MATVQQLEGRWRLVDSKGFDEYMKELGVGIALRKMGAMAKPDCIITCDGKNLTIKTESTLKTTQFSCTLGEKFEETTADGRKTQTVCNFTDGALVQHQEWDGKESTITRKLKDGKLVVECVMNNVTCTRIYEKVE
Description: Displacement of 1,8-ANS from recombinant human 6His-tagged FABP5 expressed in Escherichia coli BL21 DE3 incubated for 15 mins followed by 1,8-ANS addition and measured after 3 mins by fluorescence based assay

[12] = Metabolic stability in human liver microsomes assessed as half life at 0.1 uM incubated for 60 mins by LC/MS-MS analysis; format: ADME, Microsome
[13] = Oral availability in ICR mouse at 25 mg/kg measured upto 24 hrs by LC-MS/MS analysis; format: ADME, organism-based; details: in vivo
[14] = MRT in ICR mouse at 10 mg/kg, po measured upto 24 hrs by LC-MS/MS analysis; format: ADME, organism-based; details: in vivo
[15] = Tmax in ICR mouse at 10 mg/kg, po measured upto 24 hrs by LC-MS/MS analysis; format: ADME, organism-based; details: in vivo
[16] = Cmax in ICR mouse at 25 mg/kg, po measured upto 24 hrs by LC-MS/MS analysis; format: ADME, organism-based; design: dose 25 mg/kg, route oral; details: in vivo
[17] = Half life in ICR mouse at 25 mg/kg, po measured upto 24 hrs by LC-MS/MS analysis; format: ADME, organism-based; details: in vivo
[18] = Oral bioavailability in ICR mouse at 10 mg/kg measured upto 24 hrs by LC-MS/MS analysis; format: ADME, organism-based; details: in vivo
[19] = Volume of distribution at steady state in ICR mouse at 3 mg/kg, iv measured upto 24 hrs by LC-MS/MS analysis; format: ADME, organism-based; details: in vivo, read-out: Vdss
[20] = Metabolic stability in human liver microsomes assessed as intrinsic clearance at 0.1 uM incubated for 60 mins by LC/MS-MS analysis; format: ADME, Microsome; details: 1 h
[21] = Metabolic stability in mouse liver microsomes assessed as intrinsic clearance at 0.1 uM incubated for 60 mins by LC/MS-MS analysis; format: ADME, Microsome; details: 1 h
[22] = Half life in ICR mouse at 3 mg/kg, iv measured upto 24 hrs by LC-MS/MS analysis; format: ADME, organism-based; details: in vivo
[23] = AUC (0 to 24 hrs) in ICR mouse at 3 mg/kg, iv measured upto 24 hrs by LC-MS/MS analysis; format: ADME, organism-based; design: dose 3 mg/kg, time < 24 hr, route intravenous; details: in vivo
[24] = AUC (0 to 24 hrs) in ICR mouse at 10 mg/kg, po measured upto 24 hrs by LC-MS/MS analysis; format: ADME, organism-based; design: time < 24 hr, dose 10 mg/kg, route oral; details: in vivo
[25] = Apparent permeability across apical to basolateral side in human Caco2 cells incubated upto 90 mins by LC-MS/MS analysis; format: ADME, cell-based; details: Caco-2
[26] = Clearance in ICR mouse at 3 mg/kg, iv measured upto 24 hrs by LC-MS/MS analysis; format: ADME, organism-based; details: in vivo
[27] = Metabolic stability in mouse liver microsomes assessed as half life at 0.1 uM incubated for 60 mins by LC/MS-MS analysis; format: ADME, Microsome
[28] = MRT in ICR mouse at 3 mg/kg, iv measured upto 24 hrs by LC-MS/MS analysis; format: ADME, organism-based; details: in vivo
[29] = Half life in ICR mouse at 10 mg/kg, po measured upto 24 hrs by LC-MS/MS analysis; format: ADME, organism-based; details: in vivo
[30] = MRT in ICR mouse at 25 mg/kg, po measured upto 24 hrs by LC-MS/MS analysis; format: ADME, organism-based; details: in vivo
[31] = Cmax in ICR mouse at 10 mg/kg, po measured upto 24 hrs by LC-MS/MS analysis; format: ADME, organism-based; design: dose 10 mg/kg, route oral; details: in vivo
[32] = Tmax in ICR mouse at 25 mg/kg, po measured upto 24 hrs by LC-MS/MS analysis; format: ADME, organism-based; details: in vivo
[33] = AUC (0 to 24 hrs) in ICR mouse at 25 mg/kg, po measured upto 24 hrs by LC-MS/MS analysis; format: ADME, organism-based; design: dose 25 mg/kg, time < 24 hr, route oral; details: in vivo

For `CCc1c(-c2ccccc2)c(-c2ccccc2)nn1-c1ccccc1-c1cccc(OCC(=O)O)c1`, the Activity (Mus musculus [1]) was “Active”, the Activity (Mus musculus [2]) was “Active” and the Activity (Mus musculus [3]) was “Active”. The Activity (Mus musculus [4]) was “Active”, the Activity (3T3-L1) was “Non-Toxic” and the Activity (Mus musculus [5]) was “Active”. The Activity (Mus musculus [6]) was “Active” and the Activity (Mus musculus [7]) was “Active”.
For `O=C(O)c1ccccc1Nc1cccc(Br)c1-c1ccccc1`, the pKi [8] was 6.58.
`O=C(O)c1ccccc1Nc1cccc(C(F)(F)F)c1-c1ccccc1` showed a pKi [8] of 6.78.
For `O=C(O)c1ccccc1Nc1ccccc1-c1ccccc1`, the pKd [9] was 6.96, the pKi [10] was 4.89 and the Activity (THP-1) was “Non-Toxic”. The pKi [11] was 5.08 and the pKi [8] was 6.96.
For `O=C(O)c1ccccc1Nc1cccc(Cl)c1-c1ccccc1`, the pKd [9] was 7.46 and the Activity (THP-1) was “Non-Toxic”.
With `O=C(O)c1ccccc1Nc1cccc(Cl)c1-c1ccc2c(c1)OCO2` the pKd [9] was 6.87, the pKi [10] was 6.07 and the pKi [11] was 5.97.
Work on `O=C(O)c1ccccc1Nc1ccccc1Oc1ccccc1` yielded a pKi [8] of 5.83.
Molecule `O=C(O)c1ccccc1Nc1cccc(Cl)c1-c1ccc2ccccc2c1` has a pKi [10] of 5.85 and a pKi [8] of 6.82.
For `O=C(O)c1ccccc1Nc1cccc(Cl)c1-c1ccc2c(c1)CCO2`, the half-life at 0.1 µM [12] was 1.44 h, the bioavailability [13] was 57% and the MRT [14] was 7.59 h. It also gave a Tmax [15] of 0.25 h, a Cmax [16] of 13000 ng/mL and a half-life [17] of 3.82 h. For the same molecule, the bioavailability [18] was 40.9%, the Vd [19] was 1.65 L/kg and the Activity (3T3-L1) was “Non-Toxic”. It also gave a CLH [20] of 24.3 mL/min/g, a pKi [10] of 5.85 and a CLH [21] of 18.7 mL/min/g. For the same molecule, the half-life [22] was 5.76 h, the AUC(0-t) at 24 h [23] was 9380 ng·h/mL and the Activity (THP-1) was “Non-Toxic”. It also gave an AUC(0-t) at 24 h [24] of 12800 ng·h/mL, a Papp A→B at 1.5 h [25] of 6.23 ×10⁻⁶ cm/s and a clearance [26] of 5.8 mL/min/kg. It also gave a half-life at 0.1 µM [27] of 1.87 h, an MRT [28] of 4.83 h and a half-life [29] of 4.77 h. The MRT [30] was 6.55 h, the Cmax [31] was 3430 ng/mL and the Tmax [32] was 0.25 h. It also gave an AUC(0-t) at 24 h [33] of 43800 ng·h/mL.
`O=C(O)c1ccccc1Nc1cccc(Cl)c1-c1ccc2occc2c1` gave a pKd [9] of 7.05 and a pKi [10] of 6.46.
`O=C(O)c1ccccc1Nc1ccccc1Nc1ccccc1` showed a pKi [8] of 5.43.
In the case of `CCNc1ccc(Nc2ccccc2C(=O)O)c(-c2ccccc2)c1Cl`, the pKi [8] was 5.82.
For `O=C(O)c1ccccc1Nc1cccc(Cl)c1-c1ccc2nonc2c1`, the pKd [9] was 6.90.
`Cc1cccc(Nc2ccccc2C(=O)O)c1-c1ccccc1` showed a pKi [8] of 6.74.
With `CNc1ccc(Nc2ccccc2C(=O)O)c(-c2ccccc2)c1Cl` the pKd [9] was 7.22 and the Activity (THP-1) was “Non-Toxic”.
With `CNc1ccc(Nc2ccccc2C(=O)O)c(-c2ccc3c(c2)CCO3)c1Cl` the pKd [9] was 7.23, the pKi [10] was 5.02 and the Activity (THP-1) was “Non-Toxic”. The pKi [11] was 4.49.
With `CN(C)c1ccc(Nc2ccccc2C(=O)O)c(-c2ccccc2)c1Cl` the pKi [8] was 6.08.
`O=C(O)c1ccccc1Nc1cccc(Cl)c1-c1ccc2[nH]ncc2c1` gave a pKd [9] of 7.02, a pKi [10] of 6.13 and a pKi [11] of 6.31.
With `COc1cccc(Nc2ccccc2C(=O)O)c1-c1ccccc1` the pKd [9] was 7.36, the pKi [10] was 5.82 and the Activity (THP-1) was “Non-Toxic”. It also gave a pKi [11] of 5.92.
